Results from patent US7064204B2, “Pharmaceutically active compounds having a tricyclic pyrazolotriazolopyrimidine ring structure and methods of use” (King Pharmacueticals Reserch and Development, Inc., priority 2002, dated 2006).
Structures can show the parent of a compound that is named as a salt.

What was measured:
[1] = target: T1, human A3 adenosine receptors (Homo sapiens, UniProt P0DMS8); assay: Displacement of [3H]MRE 3008F20 binding at human A3 adenosine receptors expressed in CHO cells; design: expressed in transfected cells; host or cells: CHO cells; settings: for affinity for / interaction with A3 adenosine receptor subtype: discussion of Tables 2 and 3
T1 sequence (P0DMS8 1-318): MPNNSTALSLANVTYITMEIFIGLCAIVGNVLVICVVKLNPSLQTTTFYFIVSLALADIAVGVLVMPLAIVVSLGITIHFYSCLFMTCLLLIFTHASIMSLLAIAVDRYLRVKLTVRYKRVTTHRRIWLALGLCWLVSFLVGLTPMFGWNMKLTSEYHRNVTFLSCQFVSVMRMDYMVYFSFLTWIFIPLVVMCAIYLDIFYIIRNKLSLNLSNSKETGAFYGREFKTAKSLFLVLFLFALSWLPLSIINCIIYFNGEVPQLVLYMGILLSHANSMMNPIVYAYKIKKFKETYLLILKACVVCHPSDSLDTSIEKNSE

[2] = target: T2, human A2A adenosine receptors (Homo sapiens, UniProt P29274); assay: Displacement of [3H]SCH58261 binding at human A2A adenosine receptors expressed in CHO cells; settings: for Ki: CHO cells; for affinity for A2A adenosine receptor subtype / selectivity for A2A versus the other adenosine receptor subtypes: in words; for affinity for A2A adenosine receptor subtype: discussion of Tables 2 and 3
T2 construct: expressed in transfected cells; host or cells: CHO cells

[3] = target: T3, human A2B adenosine receptors (Homo sapiens, UniProt P29275); assay: Displacement of [3H]DPCPX binding at human A2B adenosine receptors expressed in HEK-293 cells
T3 construct: expressed in transfected cells; host or cells: HEK-293 cells
T3 sequence (P29275 1-332): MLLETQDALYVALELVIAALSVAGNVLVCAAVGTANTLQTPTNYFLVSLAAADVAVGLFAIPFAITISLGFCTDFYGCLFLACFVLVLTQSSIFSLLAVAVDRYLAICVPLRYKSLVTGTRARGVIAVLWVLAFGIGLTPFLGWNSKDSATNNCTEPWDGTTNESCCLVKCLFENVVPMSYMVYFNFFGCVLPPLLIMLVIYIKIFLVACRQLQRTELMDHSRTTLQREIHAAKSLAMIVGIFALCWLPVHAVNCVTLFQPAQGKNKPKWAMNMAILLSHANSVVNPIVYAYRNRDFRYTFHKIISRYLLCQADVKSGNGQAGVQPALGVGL

[4] = target: T4, human A1 adenosine receptors (Homo sapiens, UniProt P30542); assay: Displacement of [3H]DPCPX binding at human A1 adenosine receptors expressed in CHO cells
T4 construct: expressed in transfected cells; host or cells: CHO cells
T4 sequence (P30542 1-326): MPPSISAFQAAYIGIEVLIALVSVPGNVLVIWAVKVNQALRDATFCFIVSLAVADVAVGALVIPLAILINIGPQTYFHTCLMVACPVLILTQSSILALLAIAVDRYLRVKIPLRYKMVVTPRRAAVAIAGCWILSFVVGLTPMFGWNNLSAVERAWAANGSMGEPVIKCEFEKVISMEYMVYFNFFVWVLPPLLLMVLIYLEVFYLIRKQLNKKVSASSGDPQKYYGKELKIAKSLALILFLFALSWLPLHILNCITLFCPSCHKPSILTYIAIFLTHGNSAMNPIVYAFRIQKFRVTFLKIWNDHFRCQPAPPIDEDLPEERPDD

[5] = Table 2, footnote b: [3H]MRE 3008F20, human A3, CHO cells
[6] = Table 2, footnote b: [3H]SCH58261, human A2A
[7] = Table 2, footnote b: [3H]DPCPX, human A1
[8] = Table 3: [3H]MRE 3008F20, human A3, CHO cells
[9] = Table 3: [3H]DPCPX, HEK-293 cells
[10] = Table 3: [3H]DPCPX, human A1, CHO cells
[11] = Table 3: [3H]SCH58261, human A2A

T2 sequence (P29274 whole entry): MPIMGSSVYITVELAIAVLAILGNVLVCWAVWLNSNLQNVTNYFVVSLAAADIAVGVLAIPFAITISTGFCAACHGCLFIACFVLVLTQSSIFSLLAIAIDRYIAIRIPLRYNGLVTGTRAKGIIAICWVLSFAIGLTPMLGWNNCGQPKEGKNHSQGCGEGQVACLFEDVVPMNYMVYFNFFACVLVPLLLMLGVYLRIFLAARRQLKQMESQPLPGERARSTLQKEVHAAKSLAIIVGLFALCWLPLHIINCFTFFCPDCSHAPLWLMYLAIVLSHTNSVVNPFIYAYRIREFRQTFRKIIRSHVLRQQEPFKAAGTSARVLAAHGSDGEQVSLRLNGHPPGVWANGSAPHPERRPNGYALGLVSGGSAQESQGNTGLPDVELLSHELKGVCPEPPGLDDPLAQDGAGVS

| Compound | affinity for / interaction with A3 adenosine receptor subtype ([1]; in words) | Ki [1, 8] [nM] | affinity for A2A adenosine receptor subtype [2] | Ki [3, 9] [nM] | Ki [4, 10] [nM] | Ki [2, 11] [nM] | also measured |
| --- | --- | --- | --- | --- | --- | --- | --- |
| CCOc1ccccc1-c1nc2c3cnn(CCc4ccccc4)c3nc(N)n2n1 [Compound 5c, 2-(2-Ethoxy-phenyl)-7-phenethyl-7H-pyrazolo[4,3-e][1,2,4]triazolo[1,5-c]pyrimidin-5-ylamine] | poor affinity |  |  |  |  |  | Ki [1, 5]: 348 nM; selectivity for A3 versus the other adenosine receptor subtypes ([1]; in words): complete selectivity; Ki [2, 6]: > 1000 nM; Ki ([3]; Table 2, footnote b: [3H]DPCPX): > 1000 nM; Ki [4, 7]: > 1000 nM |
| CCOC(=O)COc1ccc(-c2nc3c4cnn(CCc5ccccc5)c4nc(N)n3n2)cc1 [Compound 6, [4-(5-Amino-7-phenethyl-7H-pyrazolo[4,3-e][1,2,4]triazolo[1,5-c]pyrimidin-2-yl)-phenoxy]-acetic acid ethyl ester] |  |  |  |  |  |  | Ki [1, 5]: > 1000 nM; Ki [2, 6]: > 1000 nM; Ki ([3]; Table 2, footnote b: [3H]DPCPX): > 1000 nM; Ki [4, 7]: > 1000 nM |
| Nc1nc2c(cnn2CCc2ccccc2)c2nc(-c3ccc(OCC(=O)O)cc3)nn12 [Compound 7, [4-(5-Amino-7-phenethyl-7H-pyrazolo[4,3-e][1,2,4]triazolo[1,5-c]pyrimidin-2-yl)-phenoxy]-acetic acid] |  |  |  |  |  |  | Ki [1, 5]: > 1000 nM; Ki [2, 6]: > 1000 nM; Ki ([3]; Table 2, footnote b: [3H]DPCPX): > 1000 nM; Ki [4, 7]: > 1000 nM |
| Nc1nc2c(cnn2CCc2ccccc2)c2nc(-c3ccc(OCC(=O)Nc4ccc(I)cc4)cc3)nn12 [Compound 8, 2-[4-(5-Amino-7-phenethyl-7H-pyrazolo[4,3-e][1,2,4]triazolo[1,5-c]pyrimidin-2-yl)-phenoxy]-N-(4-iodo-phenyl)-acetamide] |  |  |  |  |  |  | Ki [1, 5]: > 1000 nM; Ki [2, 6]: > 1000 nM; Ki ([3]; Table 2, footnote b: [3H]DPCPX): > 1000 nM; Ki [4, 7]: > 1000 nM |
| CCNc1c2c(nc(N)n3nc(-c4ccco4)nc23)nn1C [Compound 38, N9-Ethyl-2-furan-2-yl-8-methyl-8H-pyrazolo[4,3-e][1,2,4]triazolo[1,5-c]pyrimidiine-5,9-diamine] |  | 225 | good affinity | 81 | 50 |  |  |
| COc1ccc(Nc2c3c(nc(N)n4nc(-c5ccco5)nc34)nn2C)cc1 [Compound 39, 2-Furan-2-yl-N9-(4-methoxy-phenyl)-8-methyl-8H-pyrazolo[4,3-e][1,2,4]triazolo[1,5-c]pyrimidine-5,9-diamine] |  |  | useless |  | 260 |  |  |
| CN1CCN(c2c3c(nc(N)n4nc(-c5ccco5)nc34)nn2C)CC1 [Compound 40, 2-Furan-2-yl-8-methyl-9-(4-methyl-piperazin-1-yl)-8H-pyrazolo[4,3-e][1,2,4]triazolo[1,5-c]pyrimidin-5-ylamine] |  |  | useless | 35 | 30 | 156 |  |
| CSc1c2c(nc(N)n3nc(-c4ccco4)nc23)nn1C [Compound 41, 2-Furan-2-yl-8-methyl-9-methylsulfanyl-8H-pyrazolo[4,3-e][1,2,4]triazolo[1,5-c]pyrimidin-5-ylamine] |  | 35 | good affinity | 10.3 | 8.4 | 1.2 | selectivity for A2A versus the other adenosine receptor subtypes [2]: low selectivity |
| CCCSc1c2c(nc(N)n3nc(-c4ccco4)nc23)nn1C [Compound 42, 2-Furan-2-yl-8-methyl-9-propylsulfanyl-8H-pyrazolo[4,3-e][1,2,4]triazolo[1,5-c]pyrimidin-5-ylamine] |  | 224 | maintains the A2A affinity | 69 | 9 | 2.1 | selectivity for A2A versus the other adenosine receptor subtypes [2]: increases the selectivity |
| CSc1c2c(nc(N)n3nc(-c4ccco4)nc23)nn1CCCc1ccccc1 [Compound 43, 2-Furan-2-yl-9-methylsulfanyl-8-(3-phenyl-propyl)-8H-pyrazolo[4,3-e][1,2,4]triazolo[1,5-c]pyrimidin-5-ylamine] |  |  | decrease of A2A interaction | 31 | 175 | 22 |  |
| CCNc1c2c(nc(NC(=O)Nc3ccc(OC)cc3)n3nc(-c4ccco4)nc23)nn1C [Compound 44, 1-(9-Ethylamino-2-furan-2-yl-8-methyl-8H-pyrazolo[4,3-e][1,2,4]triazolo[1,5-c]pyrimidin-5-yl)-3-(4-methoxy-phenyl)-urea] | good increase in A3 affinity | 17 | decrease of A2A affinity | 37 | 150 |  |  |
| COc1ccc(NC(=O)Nc2nc3nn(C)c(N4CCN(C)CC4)c3c3nc(-c4ccco4)nn23)cc1 [Compound 45, 1-[2-Furan-2-yl-8-methyl-9-(4-methyl-piperazin-1-yl)-8H-pyrazolo[4,3-e][1,2,4]triazolo[1,5-c]pyrimidin-5-yl]-3-(4-methoxy-phenyl)-urea] |  |  |  | 26 | 316 |  |  |
| COc1ccc(NC(=O)Nc2nc3nn(C)c(SC)c3c3nc(-c4ccco4)nn23)cc1 [Compound 46, 1-(2-Furan-2-yl-8-methyl-9-methylsulfanyl-8H-pyrazolo[4,3-e][1,2,4]triazolo[1,5-c]pyrimidin-5-yl)-3-(4-methoxy-phenyl)-urea] | decreased | 212 |  | 24 | 70 | 3.1 |  |
| COc1ccc(CC(=O)Nc2nc3nn(C)c(SC)c3c3nc(-c4ccco4)nn23)cc1 [Compound 47, N-(2-Furan-2-yl-8-methyl-9-methylsulfanyl-8H-pyrazolo[4,3-e][1,2,4]triazolo[1,5-c]pyrimidin-5-yl)-2-(4-methoxy-phenyl)-acetamide] | decreased |  | maintains A2A affinity | 45 | 80 | 15 |  |
| CSc1c2c(nc(NC(=O)Cc3ccc(CC(C)C)cc3)n3nc(-c4ccco4)nc23)nn1C [Compound 48, N-(2-Furan-2-yl-8-methyl-9-methylsulfanyl-8H-pyrazolo[4,3-e][1,2,4]triazolo[1,5-c]pyrimidin-5-yl)-2-(4-isobutyl-phenyl)-acetamide] | decreased |  | maintains A2A affinity | 190 | 780 | 50 |  |
| CSc1c2c(nc(NC(=O)Cc3ccc4c(c3)OCO4)n3nc(-c4ccco4)nc23)nn1C [Compound 49, 2-Benzo[1,3]dioxol-5-yl-N-(2-furan-2-yl-8-methyl-9-methylsulfanyl-8H-pyrazolo[4,3-e][1,2,4]triazolo[1,5-c]pyrimidin-5-yl)-acetamide] | decreased | 110 |  | 30 | 70 | 4.1 |  |
| Cn1nc2nc(N)n3nc(-c4ccco4)nc3c2c1Nc1ccc(O)cc1 [Compound 52, 4-(5-Amino-2-furan-2-yl-8-methyl-8H-pyrazolo[4,3-e][1,2,4]triazolo[1,5-c]pyrimidin-9-ylamino)-phenol] |  | 308 | useless |  | 666 |  |  |
| CCNc1c2c(nc(N)n3nc(-c4ccco4)nc23)nn1C [Compound 53, N9-Ethyl-2-furan-2-yl-8-methyl-8H-pyrazolo[4,3-e][1,2,4]triazolo[1,5-c]pyrimidine-5,9-diamine hydrochloride salt] |  |  |  |  |  |  | Ki ([1]; Table 3: [3H]MRE 3008F20, human A3, CHO cells, hydrochloride salt): 25 nM; Ki ([3]; Table 3: [3H]DPCPX, HEK-293 cells, hydrochloride salt): 36 nM; Ki ([4]; Table 3: [3H]DPCPX, human A1, CHO cells, hydrochloride salt): 41 nM |
| CN1CCN(c2c3c(nc(N)n4nc(-c5ccco5)nc34)nn2C)CC1 [Compound 54, 2-Furan-2-yl-8-methyl-9-(4-methyl-piperazin-1-yl)-8H-pyrazolo[4,3-e][1,2,4]triazolo[1,5-c]pyrimidin-5-ylamine dihydrochloride salt] |  |  |  |  |  |  | Ki ([2]; Table 3: [3H]SCH58261, human A2A, dihydrochloride salt): 135 nM; Ki ([3]; Table 3: [3H]DPCPX, HEK-293 cells, dihydrochloride salt): 12 nM; Ki ([4]; Table 3: [3H]DPCPX, human A1, CHO cells, dihydrochloride salt): 48 nM |
